Experiments:
[1] = system: murine hematopoietic system; assay: exogenous spleen colony (CFU-S) assay, toxicity to the murine hematopoietic system; format: in vivo; details: CFU-S assay 20 hrs after drug administration, mice
Method: To evaluate toxicity to the murine hematopoietic system, an exogenous spleen colony (CFU-S) assay was used. A suitable number of murine […] are injected (intravenously) into lethally irradiated syngeneic mice (Ref. Hodgson, G. S., and Bradley, T. R., Properties of Haematopoietic Stem Cells Surviving 5-FU Treatment: Evidence for a pre-CFU-S Cell48, Nature 281:381, 1979).
Colonies are found in the spleen of the recipients on Day 9 or 10; there is a linear relationship between the number of cells injected and the number of spleen colonies. The spleen colonies originate from a single cell, and contain cells of the erythroid, granulocytic and megakaryocytic series.
At 20 hours after drug administration, each mouse was sacrificed and bone marrow was extracted from the femurs into McCoy's 5A medium (GIBCOm Grand Island, N.Y.) on ice. Nucleated marrow cells were quantitated, and 5×10^4 cells were injected intravenously into syngeneic recipient mice one hour after they received 800 rads whole body radiation. Nine days later, the recipient animals were sacrificed, and the spleens were removed and fixed in Boulin's solution. Surface colonies were then counted.

[2] = AZT recipients, cited from earlier work
[3] = system: human immunodeficiency virus (HIV); details: cited from earlier work
[4] = placebo 4 percent (P less than 0.001)

Row | Compound | CFU-S Survival (% of Control) ([1]; phosphorothioate 900 mg/kg po, followed in 30 minutes with AZT 400 mg/kg ip) [%] | CFU-S Survival (% of Control) ([1]; AZT alone, 400 mg/kg ip) [%] | neutropenia (less than 500 cells per cubic millimeter), share of recipients ([2]; placebo 2 percent (P less than 0.001)) [%] | anemia with hemoglobin levels below 7.5 per deciliter, share of recipients [2, 4] [%] | required multiple red-cell transfusions, share of recipients [2, 4] [%] | clinical benefits with AIDS ([3]; AIDS patients) | serious adverse reactions ([3]; human, in vivo)
1 | CNCCCNCCCSP(=O)(O)O [S-3-(3-methylaminopropylamino)propyl dihydrogen phosphorothioate] | 68 |  |  |  |  |  | 
2 | Cc1cn([C@H]2C[C@H](N=[N+]=[N-])[C@@H](CO)O2)c(=O)[nH]c1=O [AZT, 3'-azido-3'-deoxythymidinc] |  | 18 | 16 | 24 | 21 | clinical benefits with AIDS have been reported | serious adverse reactions, particularly bone marrow suppression were observed
